According to the supplement of paper PMC10307832:

What was measured:
Test in all cases: relative viability (nuclei count vs DMSO), 5 days (fraction); higher = more cells survive
[1] = compound: O=S(=O)(c1ccccc1)N(CC(F)(F)F)c1ccc(C(O)(C(F)(F)F)C(F)(F)F)cc1 + CC(=O)c1c(C)c2cnc(Nc3ccc(N4CCNCC4)cn3)nc2n(C2CCCC2)c1=O [Palbociclib] (partner 0.5 µM)
Method in brief: (§1)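 Lung cancer cell lines were seeded in 1536-well plates and dosed by pin tool the next day, with either a single drug or a fixed anchor-drug dose combined with five library-drug doses (not always all listed) spaced in √10 steps. Five days later, one step fixed the cells and stained their nuclei (final 0.05% Triton X-100, 1% formaldehyde, 1 ug/ml Hoechst), and nuclei were counted on 4× images. Relative viability is the nuclei count in treated wells divided by the count in vehicle wells, and each value is the median of duplicate plates.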

[2] = compound: O=S(=O)(c1ccccc1)N(CC(F)(F)F)c1ccc(C(O)(C(F)(F)F)C(F)(F)F)cc1 + Cc1nc(NC(=O)N2CCC[C@H]2C(N)=O)sc1-c1ccnc(C(C)(C)C(F)(F)F)c1 [Alpelisib] (partner 2 µM)
Method in brief: as §1

RO-3306 + Alpelisib = compound: C1=CC2=C(C=CC(=C2)C=C3C(=O)NC(=NCC4=CC=CS4)S3)N=C1 [RO-3306] + Cc1nc(NC(=O)N2CCC[C@H]2C(N)=O)sc1-c1ccnc(C(C)(C)C(F)(F)F)c1 [Alpelisib] (partner 2 µM)
Method in brief: as §1

RO-3306 + Palbociclib = compound: C1=CC2=C(C=CC(=C2)C=C3C(=O)NC(=NCC4=CC=CS4)S3)N=C1 [RO-3306] + CC(=O)c1c(C)c2cnc(Nc3ccc(N4CCNCC4)cn3)nc2n(C2CCCC2)c1=O [Palbociclib] (partner 0.5 µM)
Method in brief: as §1

Cell Line | relative viability ([1]; first compound 0.8 µM) | relative viability ([1]; first compound 2.53 µM) | relative viability ([1]; first compound 8 µM) | relative viability ([2]; first compound 0.8 µM) | relative viability ([2]; first compound 2.53 µM) | relative viability ([2]; first compound 8 µM) | relative viability (RO-3306 + Alpelisib; first compound 0.01 µM) | relative viability (RO-3306 + Alpelisib; first compound 0.03162 µM) | relative viability (RO-3306 + Alpelisib; first compound 0.1 µM) | relative viability (RO-3306 + Alpelisib; first compound 0.3162 µM) | relative viability (RO-3306 + Alpelisib; first compound 1 µM) | relative viability (RO-3306 + Palbociclib; first compound 0.01 µM) | relative viability (RO-3306 + Palbociclib; first compound 0.03162 µM) | relative viability (RO-3306 + Palbociclib; first compound 0.1 µM) | relative viability (RO-3306 + Palbociclib; first compound 0.3162 µM) | relative viability (RO-3306 + Palbociclib; first compound 1 µM)
NCI-H838 | 0.241 | 0.244 | 0.276 | 1.12 | 0.923 | 1.07 | 0.992 | 0.972 | 1.01 | 1.04 | 0.999 | 0.228 | 0.211 | 0.254 | 0.254 | 0.193
NCI-H2170 | 0.433 | 0.353 | 0.356 | 0.961 | 0.804 | 0.798 | 0.772 | 0.687 | 0.765 | 0.825 | 0.77 | 0.416 | 0.398 | 0.372 | 0.433 | 0.378
COR-L 105 | 0.328 | 0.411 | 0.378 | 1.13 | 0.848 | 0.989 | 1.36 | 0.835 | 1.06 | 1.09 | 0.998 | 0.392 | 0.408 | 0.412 | 0.404 | 0.385
HOP-62 | 0.408 | 0.3 | 0.355 | 0.551 | 0.954 | 0.706 | 1.02 | 0.992 | 0.933 | 1.04 | 0.986 | 0.519 | 0.481 | 0.416 | 0.43 | 0.446
A-427 | 0.449 | 0.454 | 0.476 | 1.11 | 1.02 | 1.02 | 1.13 | 0.575 | 1 | 1.06 | 1.02 | 0.502 | 0.513 | 0.545 | 0.57 | 0.516
PC-14 | 0.345 | 0.254 | 0.198 | 0.829 | 0.697 | 0.525 | 0.981 | – | 0.939 | 0.953 | 0.996 | 0.654 | 0.4 | 0.494 | 0.538 | 0.577
NCI-H1437 | 0.308 | 0.268 | 0.304 | 0.904 | 0.771 | 0.718 | 1.05 | 0.868 | 0.999 | 1 | 0.929 | 0.312 | 0.316 | 0.294 | 0.317 | 0.289
201T | 0.365 | 0.354 | 0.371 | 1 | 0.915 | 0.987 | 1.03 | 1.01 | 1.05 | 0.973 | 1.04 | 0.31 | 0.342 | 0.325 | 0.36 | 0.367
LCLC-97TM1 | – | 0.206 | 0.236 | 0.241 | 0.252 | 0.263 | – | 0.243 | 0.243 | 0.27 | 0.179 | 0.203 | 0.218 | 0.237 | 0.214 | 0.194
NCI-H1395 | 0.642 | 0.627 | 0.603 | 0.936 | 1.02 | 1.29 | 1.12 | 1.22 | 1.1 | 1.03 | 1.02 | 0.696 | 0.678 | 0.58 | 0.641 | 0.558
LU99A | 0.407 | 0.343 | 0.374 | 0.606 | 0.498 | 0.472 | 0.492 | 0.452 | 0.564 | 0.472 | 0.491 | 0.438 | 0.418 | 0.425 | 0.374 | 0.386
NCI-H2228 | 0.989 | 0.639 | 0.722 | 0.88 | 0.491 | 0.502 | 0.623 | 0.777 | 0.865 | 0.673 | 0.609 | 0.753 | 0.404 | 0.622 | 0.771 | 0.433
NCI-H1915 | 0.46 | 0.577 | 0.525 | 1.09 | 1.03 | 1.02 | 1.11 | 0.988 | 1.08 | 1.11 | 1.05 | 0.54 | 0.523 | 0.518 | 0.539 | 0.538
NCI-H2405 | 0.554 | 0.506 | 0.55 | 0.877 | 0.795 | 0.868 | 0.801 | 0.707 | 0.784 | 0.874 | 0.695 | 0.553 | 0.45 | 0.562 | 0.518 | 0.494
NCI-H661 | 0.426 | 0.386 | 0.396 | 0.752 | 0.681 | 1.02 | 0.736 | 0.735 | 0.686 | 0.745 | 0.688 | 0.421 | 0.45 | 0.394 | 0.386 | 0.383
EPLC-272H | 0.357 | 0.286 | 0.261 | 0.818 | 1.04 | 0.681 | 0.927 | 0.79 | 0.909 | 0.829 | 0.972 | 0.254 | – | 0.342 | 0.304 | 0.302
NCI-H2023 | 0.335 | 0.328 | 0.27 | 0.574 | 0.606 | 0.506 | 0.758 | 0.448 | 0.558 | 0.661 | 0.564 | 0.389 | 0.376 | 0.276 | 0.443 | 0.251
NCI-H358 | – | 0.129 | 0.116 | 0.647 | 0.729 | 0.695 | 0.868 | 0.711 | 0.759 | 0.809 | 0.556 | 0.163 | 0.106 | 0.126 | 0.116 | 0.112
NCI-H1734 | 0.348 | 0.363 | 0.326 | 0.845 | 0.626 | 0.708 | 0.687 | 0.595 | 0.697 | 0.726 | 0.719 | 0.39 | 0.321 | 0.333 | 0.429 | 0.34
COR-L23 | 0.332 | 0.269 | 0.285 | 0.846 | 0.8 | 0.867 | 0.898 | – | 0.866 | 0.631 | 0.75 | 0.286 | 0.252 | 0.293 | 0.297 | 0.257
